Experimental data as given in PubChem BioAssay AID192 (DTP/NCI, 2004).
Several values for one entry are separate records, joined by “and”; a condition that tells them apart may be missing. Equal values may be shown once. Inconclusive results and toxic doses are left out.

System: BDF1 mice, B16 melanoma ip, median survival T/C
Assay: NCI In Vivo Anticancer Drug Screen. Data for tumor model B16 Melanoma (intraperitoneal) in B6D2F1 (BDF1) mice
Conditions: endpoint: median survival time, higher = longer survival
Procedure, shortened: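 Tumor-bearing mice received test compound or vehicle. Survival or tumor size was then measured in both groups. The treated-group figure was divided by the control-group figure.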

[1] = dose: 12.5 mg/kg/injection, schedule: Q01DX009 (ip), vehicle: Klucel (hydroxypropylcellulose) (HPC)
[2] = dose: 12.5 mg/kg/injection, schedule: Q01DX009 (ip), vehicle: saline with Tween-80
[3] = dose: 25.0 mg/kg/injection, schedule: Q01DX009 (ip), vehicle: saline with Tween-80
[4] = dose: 50.0 mg/kg/injection, schedule: Q01DX009 (ip), vehicle: saline with Tween-80
[5] = dose: 100.0 mg/kg/injection, schedule: Q01DX009 (ip), vehicle: saline with Tween-80
[6] = dose: 200.0 mg/kg/injection, schedule: Q01DX009 (ip), vehicle: saline with Tween-80
[7] = dose: 25.0 mg/kg/injection, schedule: Q01DX009 (ip), vehicle: Klucel (hydroxypropylcellulose) (HPC)
[8] = dose: 100.0 mg/kg/injection, schedule: Q01DX009 (ip), vehicle: Klucel (hydroxypropylcellulose) (HPC)
[9] = dose: 200.0 mg/kg/injection, schedule: Q01DX009 (ip), vehicle: Klucel (hydroxypropylcellulose) (HPC)

## CCCCNC(C)[C@]1(O)Cc2c(O)c3c(c(O)c2[C@@H](OC2CC(N)C(O)C(C)O2)C1)C(=O)c1c(OC)cccc1C3=O (some centres undefined)
dose: 4.7 mg/kg/injection, schedule: Q01DX001 (ip), vehicle: water
  T/C: 185 % of control and 198 % of control
dose: 9.4 mg/kg/injection, schedule: Q01DX001 (ip), vehicle: water
  T/C: 185 % of control and 215 % of control and 270 % of control
dose: 18.8 mg/kg/injection, schedule: Q01DX001 (ip), vehicle: water
  T/C: 197 % of control and 222 % of control and 263 % of control
dose: 37.5 mg/kg/injection, schedule: Q01DX001 (ip), vehicle: water
  T/C: 106 % of control

## COC(CBr)c1ccccc1 (centres undefined)
dose: 3.12 mg/kg/injection, schedule: Q01DX009 (ip), vehicle: Klucel (hydroxypropylcellulose) (HPC)
  T/C: 102 % of control
dose: 6.25 mg/kg/injection, schedule: Q01DX009 (ip), vehicle: Klucel (hydroxypropylcellulose) (HPC)
  T/C: 104 % of control
dose: 10.0 mg/kg/injection, schedule: Q04DX003 (ip), vehicle: Klucel (hydroxypropylcellulose) (HPC)
  T/C: 97 % of control
[1]
  T/C: 92 % of control
dose: 20.0 mg/kg/injection, schedule: Q04DX003 (ip), vehicle: Klucel (hydroxypropylcellulose) (HPC)
  T/C: 87 % of control
dose: 40.0 mg/kg/injection, schedule: Q04DX003 (ip), vehicle: Klucel (hydroxypropylcellulose) (HPC)
  T/C: 87 % of control

## CCCCOCN(COCCCC)C(C)Cc1ccccc1 (centres undefined)
[2]
  T/C: 95 % of control and 100 % of control
[3]
  T/C: 98 % of control and 104 % of control
[4]
  T/C: 99 % of control and 105 % of control
[5]
  T/C: 106 % of control and 110 % of control
[6]
  T/C: 90 % of control and 100 % of control

## CC(C)(C)N1C(=O)N(C(C)(C)C)C1=O
dose: 75.0 mg/kg/injection, schedule: Q01DX009 (ip), vehicle: other
  T/C: 102 % of control
dose: 150.0 mg/kg/injection, schedule: Q01DX009 (ip), vehicle: other
  T/C: 105 % of control
dose: 300.0 mg/kg/injection, schedule: Q01DX009 (ip), vehicle: other
  T/C: 102 % of control

## CCCCc1ccc(-n2c(C)c(COC(=O)NC)c(COC(=O)NC)c2C)cc1
[7]
  T/C: 159 % of control

## O=[N+]([O-])c1cc(F)ccc1O
[3]
  T/C: 100 % of control

## CCCCCCCCCCCCCOC(=O)CC(C(=O)OCCCCCCCCCCCCC)S(=O)(=O)O (centres undefined)
[1]
  T/C: 106 % of control
[7]
  T/C: 108 % of control
dose: 50.0 mg/kg/injection, schedule: Q01DX009 (ip), vehicle: Klucel (hydroxypropylcellulose) (HPC)
  T/C: 106 % of control
[8]
  T/C: 93 % of control
[9]
  T/C: 111 % of control

## O=NN(CCCl)C(=O)NC1c2cc(Cl)ccc2-c2c(Cl)cc(Cl)cc21 (centres undefined)
[2]
  T/C: 169 % of control
[3]
  T/C: 195 % of control
[4]
  T/C: 181 % of control and 186 % of control
[5]
  T/C: 104 % of control and 231 % of control
[6]
  T/C: 175 % of control

## COc1ccc(N=NN(C(C)=O)c2ccccc2)cc1
[8]
  T/C: 102 % of control
[9]
  T/C: 102 % of control

## CN(C)c1ccc(-c2cc[n+](C)cc2)cc1
dose: 0.5 mg/kg/injection, schedule: Q01DX009 (ip), vehicle: saline
  T/C: 109 % of control
dose: 1.0 mg/kg/injection, schedule: Q01DX009 (ip), vehicle: saline
  T/C: 103 % of control
dose: 2.0 mg/kg/injection, schedule: Q01DX009 (ip), vehicle: saline
  T/C: 101 % of control
dose: 3.0 mg/kg/injection, schedule: Q01DX009 (ip), vehicle: saline
  T/C: 104 % of control
dose: 6.0 mg/kg/injection, schedule: Q01DX009 (ip), vehicle: saline
  T/C: 92 % of control

## [Cl][Hg][c]1ccc2ccccc2c1
dose: 1.5 mg/kg/injection, schedule: Q01DX009 (ip), vehicle: gum acacia
  T/C: 108 % of control
dose: 3.0 mg/kg/injection, schedule: Q01DX009 (ip), vehicle: gum acacia
  T/C: 95 % of control
dose: 6.0 mg/kg/injection, schedule: Q01DX009 (ip), vehicle: gum acacia
  T/C: 95 % of control
dose: 12.5 mg/kg/injection, schedule: Q01DX009 (ip), vehicle: gum acacia
  T/C: 96 % of control

## ClCC1C(CCl)C2(Cl)C(Cl)=C(Cl)C1(Cl)C2(Cl)Cl (centres undefined)
[4]
  T/C: 92 % of control
[5]
  T/C: 93 % of control
[6]
  T/C: 92 % of control
